According to ChEMBL document CHEMBL5244278, “Bioisosteres of the Phenyl Ring: Recent Strategic Applications in Lead Optimization and Drug Design” (J Med Chem, 2021):
In brackets after ≈: the same amount, converted by molar mass.

Tests used:
[1] = Dissociation constant, pKa of the compound; type: physicochemical
[2] = Inhibition of MAPK (unknown origin); set-up: species or system Homo sapiens
physchem = conditions: buffer, pH 7.4
[3] = Metabolic stability in human liver microsomes assessed as parent compound remaining; type: ADME, Microsome
[4] = Lipophilicity, logD of the compound at pH 7.4; type: physicochemical; conditions: buffer
[5] = Inhibition of LFA-1/ICAM-1 (unknown origin) interaction; set-up: species or system Homo sapiens
[6] = Solubility of the compound; type: physicochemical
[7] = biological target: Tyrosine-protein kinase ABL1 (Homo sapiens, UniProt P00519); assay: Inhibition of ABL1 (unknown origin)
Tyrosine-protein kinase ABL1, sequence (P00519 whole entry): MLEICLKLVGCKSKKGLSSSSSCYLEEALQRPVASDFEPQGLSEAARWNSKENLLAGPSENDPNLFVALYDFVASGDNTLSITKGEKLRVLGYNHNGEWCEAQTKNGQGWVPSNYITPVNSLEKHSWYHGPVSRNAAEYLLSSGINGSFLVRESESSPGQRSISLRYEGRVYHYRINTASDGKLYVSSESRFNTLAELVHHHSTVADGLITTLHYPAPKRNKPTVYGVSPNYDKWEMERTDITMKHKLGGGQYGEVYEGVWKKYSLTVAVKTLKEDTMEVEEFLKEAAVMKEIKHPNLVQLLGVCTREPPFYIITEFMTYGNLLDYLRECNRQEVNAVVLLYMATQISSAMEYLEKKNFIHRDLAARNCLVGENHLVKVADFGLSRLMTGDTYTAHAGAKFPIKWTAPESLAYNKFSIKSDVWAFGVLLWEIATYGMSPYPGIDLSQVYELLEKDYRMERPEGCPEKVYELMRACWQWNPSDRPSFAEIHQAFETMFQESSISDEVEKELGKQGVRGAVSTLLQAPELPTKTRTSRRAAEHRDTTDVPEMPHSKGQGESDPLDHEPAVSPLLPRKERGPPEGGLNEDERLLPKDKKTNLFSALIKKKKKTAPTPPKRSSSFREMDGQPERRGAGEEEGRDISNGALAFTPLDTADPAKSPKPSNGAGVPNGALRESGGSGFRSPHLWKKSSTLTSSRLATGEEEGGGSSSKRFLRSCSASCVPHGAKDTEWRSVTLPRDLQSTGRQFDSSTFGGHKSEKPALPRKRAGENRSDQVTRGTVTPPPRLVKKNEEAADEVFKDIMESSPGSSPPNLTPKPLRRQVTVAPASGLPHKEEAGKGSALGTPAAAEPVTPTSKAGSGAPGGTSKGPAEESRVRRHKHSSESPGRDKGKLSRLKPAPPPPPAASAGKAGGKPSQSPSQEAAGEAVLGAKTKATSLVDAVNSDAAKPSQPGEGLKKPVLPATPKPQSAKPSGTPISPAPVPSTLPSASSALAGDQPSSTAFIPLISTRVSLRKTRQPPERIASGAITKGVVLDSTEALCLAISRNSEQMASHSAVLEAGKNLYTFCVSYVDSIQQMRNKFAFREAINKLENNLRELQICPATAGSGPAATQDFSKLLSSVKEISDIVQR

[8] = Solubility of compound at pH 6.8 by RapidFire mass spectrometry; type: physicochemical; conditions: buffer
[9] = Solubility of the compound in FaSSIF at pH 6.8 by RapidFire mass spectrometry; type: ADME; conditions: simulated gi fluid
[10] = Clearance in rat liver microsomes; type: ADME, Microsome
Hepatitis C virus = assay: microbe, parasite or virus in culture; conditions: GT1b-genotype

`NC12CC(C1)C2` gave a pKa [1] of 11.

With `COCCn1c(SC)nc(-c2ccc(F)cc2)c1-c1cccc(NC(=O)CCc2ccccc2OC)c1` the IC50 [2] was 93 nM and the solubility (physchem) was 0.0255 µg/mL.

Work on `N#Cc1cccc(Br)c1` yielded a solubility (physchem) of 637 µg/mL.

Work on `NC12CCC(CC1)CC2` yielded a pKa [1] of 11.

`CN1CCN(c2ccc(Nc3cc(C4CC4)[nH]n3)nc2)CC1` gave a Stability [3] of 73%.

`O=C(C1[C@@H]2CC[C@@]1(c1ccccc1)C2)N1CCCCC1` (some centres not stated) gave a logD [4] of 3.7 and a solubility (physchem) of 492 µM.

With `CC(=O)N1CCN(C(=O)/C=C/c2ccc(Sc3ccccc3C(C)C)c(C(F)(F)F)c2)CC1` the IC50 [5] was 60 nM.

In the case of `CN1CCN(c2ccc(Nc3cc(C4CC4)[nH]n3)cc2)CC1`, the Stability [3] is reported as 92%.

Molecule `CC(=O)Nc1nc2c(Oc3cc(N4CCN([C@H](C)c5ccc(F)cc5)CC4)ncn3)cccc2s1` has a solubility [6] greater than 200 µg/mL.

Work on `O=C(c1ccccc1-c1ccccc1)N1CCCCC1` yielded a logD [4] of 3.5 and a solubility (physchem) of 397 µM.

For `Cc1ccc(NC(=O)C23CC(CN4CCN(C)CC4)(C2)C3)cc1Nc1nccc(-c2cccnc2)n1`, the IC50 [7] was greater than 1000 nM and the solubility (physchem) was 2680 µM.

`CN1CCN(c2ccc(Nc3cc(C4CC4)[nH]n3)nn2)CC1` gave a Stability [3] of 81%.

`Cc1ccc(NC(=O)[C@@H]2C[C@H]2CN2CCN(C)CC2)cc1Nc1nccc(-c2cccnc2)n1` gave an IC50 [7] greater than 1000 nM and a solubility (physchem) of 3720 µM.

`N#Cc1ccc(Br)cc1` gave a solubility (physchem) of 194 µg/mL.

`COc1ccccc1N1CCN(CCCCNC(=O)c2ccc(B3C=CC=CN3)cc2)CC1` gave a solubility [8] of 0.046 µM (≈ 0.0204 µg/mL), a solubility [9] of 0.22 µM (≈ 0.0978 µg/mL) and a CLhep predicted [10] of 53 mL/min/kg.

In the case of `Cc1ccc(NC(=O)CCCCN2CCN(C)CC2)cc1Nc1nccc(-c2cccnc2)n1`, the IC50 [7] is reported as greater than 1000 nM and the solubility (physchem) is reported as 356 µM.

Work on `CC(=O)N1CCN(c2cc(-c3ccc(Sc4ccccc4C(C)C)c(C(F)(F)F)c3)ccn2)CC1` yielded an IC50 [5] of 93 nM.

Work on `Cc1ccc(NC(=O)[C@H]2C[C@@H]2CN2CCN(C)CC2)cc1Nc1nccc(-c2cccnc2)n1` yielded an IC50 [7] greater than 1000 nM.

With `NC12CCC(CC1)C2` the pKa [1] was 11.

In the case of `COC(=O)N[C@@H](C(=O)N1CCC[C@@H]1c1ncc(-c2ccc(-c3cc4oc(-c5cnc([C@H]6CCCN6C(=O)[C@H](NC(=O)OC)C(C)C)[nH]5)cc4s3)cc2)[nH]1)C(C)C`, the EC50 (Hepatitis C virus) is reported as less than 1 nM.

Work on `O=C(/C=C/c1ccc(Sc2ccc(Cl)cc2Cl)c(Br)c1)NCCCN1CCCC1=O` yielded an IC50 [5] of 650 nM.

Molecule `CC(=O)c1ccccc1C(C)(C)C` has a solubility (physchem) of 12100 µg/mL.

With `CC(C)(C)c1cccc(C(=O)O)c1` the solubility (physchem) was 8080 µg/mL.

For `Cc1ccc(NC(=O)CCCCCN2CCN(C)CC2)cc1Nc1nccc(-c2cccnc2)n1`, the IC50 [7] was greater than 1000 nM.

`Cc1ccc(NC(=O)[C@@H]2CC[C@H](CN3CCN(C)CC3)C2)cc1Nc1nccc(-c2cccnc2)n1` showed an IC50 [7] greater than 1000 nM and a solubility (physchem) of 885 µM.

With `CC(=O)N1CCN(c2nc(-c3ccc(Sc4ccccc4C(C)C)c(C(F)(F)F)c3)co2)CC1` the IC50 [5] was 2500 nM.

For `Cc1ccc(NC(=O)[C@H]2C[C@@H](CN3CCN(C)CC3)C2)cc1Nc1nccc(-c2cccnc2)n1`, the IC50 [7] was greater than 1000 nM.

Work on `Cc1ccc(NC(=O)[C@H]2C[C@H](CN3CCN(C)CC3)C2)cc1Nc1nccc(-c2cccnc2)n1` yielded an IC50 [7] greater than 1000 nM and a solubility (physchem) of 2000 µM.

Molecule `COC(=O)N[C@@H](C(=O)N1CCC[C@@H]1c1ncc(-c2cn3cc(-c4cnc([C@H]5CCCN5C(=O)[C@H](NC(=O)OC)C(C)C)[nH]4)sc3n2)[nH]1)C(C)C` has an EC50 (Hepatitis C virus) of less than 1 nM.

`COC(=O)N[C@@H](C(=O)N1CCC[C@@H]1c1ncc(-c2ccc(-n3ccc4c(-c5cnc([C@H]6CCCN6C(=O)[C@H](NC(=O)OC)C(C)C)[nH]5)csc43)c(Cl)c2)[nH]1)C(C)C` showed an EC50 (Hepatitis C virus) of less than 1 nM.

Molecule `CC(=O)N1CCN(c2cc(-c3ccc(Sc4ccccc4C(C)C)c(C(F)(F)F)c3)ncn2)CC1` has an IC50 [5] of 220 nM.

With `Cc1ccc(NC(=O)[C@H]2CC[C@H](CN3CCN(C)CC3)CC2)cc1Nc1nccc(-c2cccnc2)n1` the IC50 [7] was greater than 1000 nM and the solubility (physchem) was 56 µM.

Molecule `N#Cc1ccccc1Br` has a solubility (physchem) of 412 µg/mL.

Work on `CC(C)c1ccccc1Sc1ccc(C2CC2C(=O)NCCCN2CCCC2=O)c(Cl)c1Cl` (racemic) yielded an IC50 [5] of 7 nM.

Work on `CC(=O)Nc1nc2c(Oc3cc(N4CCN(CC(F)(F)F)CC4)ncn3)cccc2s1` yielded a solubility [6] greater than 200 µg/mL.

`CC(=O)N1CCN(c2nc(-c3ccc(Sc4ccccc4C(C)C)c(C(F)(F)F)c3)cs2)CC1` gave an IC50 [5] of 3000 nM.
